Measurements as given in the NIST ThermoML archive (doi:10.1016/j.jct.2012.11.014).
± gives the expanded uncertainty stated by the source.

Assay: xn = mol fraction of the nth substance listed
Details: 101 kPa, Liquid; for speed of sound: Frequency=2 MHz, Linear variable-path acoustic interferometer; for viscosity: Oscillating disk viscometry; for mass density: Vibrating tube method

CC(=O)[O-].C[NH+](C)C [trimethylammonium acetate] + C[S+](C)[O-]
Details | mass density [kg/m3] | speed of sound [m/s] | viscosity [mPa·s]
298.15 K, x1 = 0.0159 | 1094.86 ± 1 | 1497 ± 3 | 2.03 ± 0.13
298.15 K, x1 = 0.0656 | 1093.33 ± 1 | 1501 ± 3 | 2.16 ± 0.13
298.15 K, x1 = 0.1182 | 1091.46 ± 1 | 1505 ± 3 | 2.29 ± 0.14
298.15 K, x1 = 0.1693 | 1089.27 ± 1 | 1509 ± 3 | 2.41 ± 0.15
298.15 K, x1 = 0.2333 | 1086.77 ± 1 | 1513 ± 3 | 2.55 ± 0.16
298.15 K, x1 = 0.2857 | 1084.45 ± 1 | 1517 ± 3 | 2.66 ± 0.16
298.15 K, x1 = 0.3408 | 1081.92 ± 1 | 1521 ± 3 | 2.77 ± 0.17
298.15 K, x1 = 0.3877 | 1079.63 ± 1 | 1524 ± 3 | 2.84 ± 0.18
298.15 K, x1 = 0.4358 | 1077.39 ± 1 | 1527 ± 3 | 2.91 ± 0.18
298.15 K, x1 = 0.5129 | 1073.63 ± 1 | 1532 ± 3 | 3 ± 0.19
298.15 K, x1 = 0.5506 | 1071.66 ± 1 | 1534 ± 3 | 3.03 ± 0.19
298.15 K, x1 = 0.5959 | 1069.68 ± 1 | 1536 ± 3 | 3.05 ± 0.19
298.15 K, x1 = 0.6852 | 1065.62 ± 1 | 1540 ± 3 | 3.08 ± 0.19
298.15 K, x1 = 0.7487 | 1062.84 ± 1 | 1542 ± 3 | 3.06 ± 0.19
298.15 K, x1 = 0.8156 | 1060.15 ± 1 | 1543 ± 3 | 3.01 ± 0.19
298.15 K, x1 = 0.8651 | 1058.27 ± 1 | 1544 ± 3 | 2.97 ± 0.19
298.15 K, x1 = 0.9231 | 1056.26 ± 1 | 1544 ± 3 | 2.89 ± 0.19
298.15 K, x1 = 0.961 | 1055.02 ± 1 | 1544 ± 3 | 2.84 ± 0.18
298.15 K, x1 = 1 | 1053.85 ± 1 | 1544 ± 3 | 2.76 ± 0.18
303.15 K, x1 = 0.0159 | 1092.06 ± 1 | 1473 ± 3 | 1.85 ± 0.12
303.15 K, x1 = 0.0656 | 1090.58 ± 1 | 1477 ± 3 | 1.99 ± 0.12
303.15 K, x1 = 0.1182 | 1088.73 ± 1 | 1480 ± 3 | 2.12 ± 0.13
303.15 K, x1 = 0.1693 | 1086.54 ± 1 | 1484 ± 3 | 2.23 ± 0.14
303.15 K, x1 = 0.2333 | 1083.95 ± 1 | 1488 ± 3 | 2.37 ± 0.15
303.15 K, x1 = 0.2857 | 1081.41 ± 1 | 1492 ± 3 | 2.47 ± 0.15
303.15 K, x1 = 0.3408 | 1078.78 ± 1 | 1495 ± 3 | 2.56 ± 0.16
303.15 K, x1 = 0.3877 | 1076.45 ± 1 | 1498 ± 3 | 2.63 ± 0.16
303.15 K, x1 = 0.4358 | 1074.03 ± 1 | 1501 ± 3 | 2.7 ± 0.17
303.15 K, x1 = 0.5129 | 1070.25 ± 1 | 1505 ± 3 | 2.78 ± 0.17
303.15 K, x1 = 0.5506 | 1068.52 ± 1 | 1507 ± 3 | 2.81 ± 0.17
303.15 K, x1 = 0.5959 | 1066.19 ± 1 | 1509 ± 3 | 2.83 ± 0.18
303.15 K, x1 = 0.6852 | 1062.02 ± 1 | 1512 ± 3 | 2.82 ± 0.18
303.15 K, x1 = 0.7487 | 1059.21 ± 1 | 1513 ± 3 | 2.8 ± 0.18
303.15 K, x1 = 0.8156 | 1056.44 ± 1 | 1514 ± 3 | 2.75 ± 0.17
303.15 K, x1 = 0.8651 | 1054.43 ± 1 | 1515 ± 3 | 2.65 ± 0.17
303.15 K, x1 = 0.9231 | 1052.36 ± 1 | 1515 ± 3 | 2.55 ± 0.17
303.15 K, x1 = 0.961 | 1051.09 ± 1 | 1515 ± 3 | 2.48 ± 0.16
303.15 K, x1 = 1 | 1049.87 ± 1 | 1514 ± 3 | 2.37 ± 0.16
308.15 K, x1 = 0.0159 | 1085.87 ± 1 | 1461 ± 3 | 1.71 ± 0.11
308.15 K, x1 = 0.0656 | 1084.72 ± 1 | 1465 ± 3 | 1.84 ± 0.11
308.15 K, x1 = 0.1182 | 1083.28 ± 1 | 1469 ± 3 | 1.96 ± 0.12
308.15 K, x1 = 0.1693 | 1081.2 ± 1 | 1473 ± 3 | 2.07 ± 0.13
308.15 K, x1 = 0.2333 | 1078.93 ± 1 | 1479 ± 3 | 2.2 ± 0.14
308.15 K, x1 = 0.2857 | 1076.51 ± 1 | 1483 ± 3 | 2.29 ± 0.14
308.15 K, x1 = 0.3408 | 1073.96 ± 1 | 1487 ± 3 | 2.39 ± 0.15
308.15 K, x1 = 0.3877 | 1071.75 ± 1 | 1491 ± 3 | 2.45 ± 0.15
308.15 K, x1 = 0.4358 | 1069.43 ± 1 | 1494 ± 3 | 2.51 ± 0.15
308.15 K, x1 = 0.5129 | 1065.68 ± 1 | 1499 ± 3 | 2.57 ± 0.16
308.15 K, x1 = 0.5506 | 1063.92 ± 1 | 1501 ± 3 | 2.59 ± 0.16
308.15 K, x1 = 0.5959 | 1061.71 ± 1 | 1504 ± 3 | 2.6 ± 0.16
308.15 K, x1 = 0.6852 | 1057.63 ± 1 | 1507 ± 3 | 2.59 ± 0.16
308.15 K, x1 = 0.7487 | 1054.92 ± 1 | 1509 ± 3 | 2.55 ± 0.16
308.15 K, x1 = 0.8156 | 1052.23 ± 1 | 1511 ± 3 | 2.49 ± 0.16
308.15 K, x1 = 0.8651 | 1050.25 ± 1 | 1511 ± 3 | 2.39 ± 0.15
308.15 K, x1 = 0.9231 | 1048.26 ± 1 | 1511 ± 3 | 2.27 ± 0.15
308.15 K, x1 = 0.961 | 1046.98 ± 1 | 1510 ± 3 | 2.19 ± 0.14
308.15 K, x1 = 1 | 1045.81 ± 1 | 1508 ± 3 | 2.06 ± 0.14
313.15 K, x1 = 0.0159 | 1081.32 ± 1 | 1443 ± 3 | 1.61 ± 0.1
313.15 K, x1 = 0.0656 | 1080.52 ± 1 | 1447 ± 3 | 1.73 ± 0.11
313.15 K, x1 = 0.1182 | 1079.21 ± 1 | 1452 ± 3 | 1.85 ± 0.11
313.15 K, x1 = 0.1693 | 1077.1 ± 1 | 1457 ± 3 | 1.96 ± 0.12
313.15 K, x1 = 0.2333 | 1074.98 ± 1 | 1463 ± 3 | 2.08 ± 0.13
313.15 K, x1 = 0.2857 | 1072.77 ± 1 | 1468 ± 3 | 2.16 ± 0.13
313.15 K, x1 = 0.3408 | 1070.09 ± 1 | 1472 ± 3 | 2.26 ± 0.14
313.15 K, x1 = 0.3877 | 1067.96 ± 1 | 1476 ± 3 | 2.31 ± 0.14
313.15 K, x1 = 0.4358 | 1065.48 ± 1 | 1481 ± 3 | 2.36 ± 0.15
313.15 K, x1 = 0.5129 | 1061.68 ± 1 | 1486 ± 3 | 2.41 ± 0.15
313.15 K, x1 = 0.5506 | 1060.02 ± 1 | 1489 ± 3 | 2.43 ± 0.15
313.15 K, x1 = 0.5959 | 1057.67 ± 1 | 1491 ± 3 | 2.44 ± 0.15
313.15 K, x1 = 0.6852 | 1053.56 ± 1 | 1495 ± 3 | 2.41 ± 0.15
313.15 K, x1 = 0.7487 | 1050.78 ± 1 | 1497 ± 3 | 2.37 ± 0.15
313.15 K, x1 = 0.8156 | 1048.06 ± 1 | 1497 ± 3 | 2.29 ± 0.14
313.15 K, x1 = 0.8651 | 1045.97 ± 1 | 1496 ± 3 | 2.18 ± 0.14
313.15 K, x1 = 0.9231 | 1044.14 ± 1 | 1495 ± 3 | 2.06 ± 0.13
313.15 K, x1 = 0.961 | 1042.88 ± 1 | 1493 ± 3 | 1.97 ± 0.13
313.15 K, x1 = 1 | 1041.7 ± 1 | 1490 ± 3 | 1.83 ± 0.12
